From patent US9187472B2 (AbbVie Inc., priority 2012, dated 2015)

How the values were obtained:
NAMPT = NAMPT (Homo sapiens, UniProt P43490); assay: TR-FRET Binding Assay of NAMPT with PRPP; details: with 200 μM PRPP and 2.5 mM ATP; 2 nM NAMPT, 2 nM probe, 16 hours equilibration
Outline: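 Substrate-containing variant: 200 μM PRPP plus 2.5 mM ATP are added to 2 nM NAMPT and 2 nM probe, with a 16-hour incubation ahead of TR-FRET reading.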

[1] = biological target: NAMPT (human, recombinant, C-terminally His-tagged) (Homo sapiens, UniProt P43490); assay: Time-Resolved Fluorescence Resonance Energy Transfer (TR-FRET) Binding Assay of NAMPT; details: without substrates; 6.8 nM NAMPT, 200 nM probe, 3 hours equilibration
Outline: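 In a displacement format, the nicotinamide-site tracer at 200 nM competed with test compound for 6.8 nM enzyme detected via 1 nM terbium anti-His antibody; incubation lasted 3 hours at room temperature in 50 mM HEPES pH 7.5, 100 mM NaCl. Normalized 520/495 nm emission ratios gave IC50 values.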

PC3 cells = assay: NAMPT Cell Proliferation Assay; assay type: cell-based; details: Homo sapiens, PC-3, 120 h, 5 days incubation, cell viability by Cell Titer Glo
Outline: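 Seed PC3 at 500 cells/well (RPMI, 10% HI-FBS), attach overnight; add compound, 10-fold series 10 μM → 1×10^−5 μM; incubate 5 d, 37° C/5% CO2; luminescent viability readout; fit % inhibition sigmoidally for IC50.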

Chain of NAMPT (P43490 whole entry): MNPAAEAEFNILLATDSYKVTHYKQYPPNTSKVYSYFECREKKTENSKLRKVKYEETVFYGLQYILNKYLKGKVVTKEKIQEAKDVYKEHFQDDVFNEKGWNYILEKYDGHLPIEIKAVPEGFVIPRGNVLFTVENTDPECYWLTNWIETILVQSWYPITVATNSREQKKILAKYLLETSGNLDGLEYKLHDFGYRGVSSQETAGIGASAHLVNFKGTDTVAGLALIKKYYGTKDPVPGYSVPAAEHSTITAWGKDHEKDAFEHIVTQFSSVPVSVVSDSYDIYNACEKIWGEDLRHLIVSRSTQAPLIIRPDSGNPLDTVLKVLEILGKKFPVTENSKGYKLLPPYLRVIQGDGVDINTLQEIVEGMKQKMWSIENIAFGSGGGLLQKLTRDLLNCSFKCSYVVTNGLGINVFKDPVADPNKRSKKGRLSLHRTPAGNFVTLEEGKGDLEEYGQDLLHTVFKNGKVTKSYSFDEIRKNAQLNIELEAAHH
Chain of NAMPT (human, recombinant, C-terminally His-tagged) (P43490 whole entry): as above

IC50 (NAMPT) [µM] | IC50 [1] [µM] | IC50 (PC3 cells) [µM] | SMILES
0.000427 | 0.762 | 0.174 | CC(C)(O)C(=O)N1CC(c2ccc(C(=O)NCc3ccn4ccnc4c3)cc2)C1 [Example 550, 4-[1-(2-hydroxy-2-methylpropanoyl)azetidin-3-yl]-N-(imidazo[1,2-a]pyridin-7-ylmethyl)benzamide]
0.000192 | 0.466 | 0.0293 | O=C(NCc1ccn2ccnc2c1)c1cnc(C2=CCN(C(=O)C3CCOCC3)CC2)s1 [Example 319, N-(imidazo[1,2-a]pyridin-7-ylmethyl)-2-[1-(tetrahydro-2H-pyran-4-ylcarbonyl)-1,2,3,6-tetrahydropyridin-4-yl]-1,3-thiazole-5-carboxamide]
0.00691 | 3.6 | 0.0283 | CC(C)OCCNC(=O)N(CC1CCOCC1)c1ncc(C(=O)NCc2ccc3nccn3c2)s1 [Example 152, N-(imidazo[1,2-a]pyridin-6-ylmethyl)-2-[{[2-(propan-2-yloxy)ethyl]carbamoyl}(tetrahydro-2H-pyran-4-ylmethyl)amino]-1,3-thiazole-5-carboxamide]
0.000771 | 0.308 | 0.0177 | CC(C)C(=O)N1CCC(c2ccc(C(=O)NCc3ccn4ccnc4c3)cc2)CC1 [Example 239, N-(imidazo[1,2-a]pyridin-7-ylmethyl)-4-[1-(2-methylpropanoyl)piperidin-4-yl]benzamide]
0.000467 | 0.419 | 0.0581 | O=C(NCc1ccn2ccnc2c1)Nc1ccc(C2CCN(C(=O)[C@@H]3CCCO3)C2)cc1 (stereo partly drawn) [Example 387, 1-(imidazo[1,2-a]pyridin-7-ylmethyl)-3-(4-{1-[(2S)-tetrahydrofuran-2-ylcarbonyl]pyrrolidin-3-yl}phenyl)urea]
0.000274 | 0.138 | 0.00896 | CC[C@H](C)C(=O)N1CCC(Oc2ccc(NC(=O)NCc3ccn4ccnc4c3)cc2)CC1 [Example 443, 1-(imidazo[1,2-a]pyridin-7-ylmethyl)-3-[4-({1-[(2S)-2-methylbutanoyl]piperidin-4-yl}oxy)phenyl]urea]
0.000478 | 0.0485 | 0.00231 | O=C(NCc1ccn2ccnc2c1)c1ccc(C2CCN(C(=O)c3ccc(F)cc3)C2)s1 (stereo not drawn) [Example 763, 5-[1-(4-fluorobenzoyl)pyrrolidin-3-yl]-N-(imidazo[1,2-a]pyridin-7-ylmethyl)thiophene-2-carboxamide]
0.000284 | 0.142 | 0.0121 | CC/C=C(\C)C(=O)N1CCC(c2ccc(C(=O)NCc3ccn4ccnc4c3)cc2)CC1 [Example 510, N-(imidazo[1,2-a]pyridin-7-ylmethyl)-4-{1-[(2E)-2-methylpent-2-enoyl]piperidin-4-yl}benzamide]
0.000682 | 0.712 | 0.0567 | CC(C)CC(=O)N1CCC(c2ccc(C(=O)NCc3ccn4ccnc4c3)cc2)C1 (stereo not drawn) [Example 601, N-(imidazo[1,2-a]pyridin-7-ylmethyl)-4-[1-(3-methylbutanoyl)pyrrolidin-3-yl]benzamide]
0.00111 | 0.0885 | 0.00325 | CC1CC1C(=O)N1CCC(c2ccc(NC(=O)NCc3ccn4ccnc4c3)cc2)CC1 (stereo not drawn) [Example 711, 1-(imidazo[1,2-a]pyridin-7-ylmethyl)-3-(4-{1-[(2-methylcyclopropyl)carbonyl]piperidin-4-yl}phenyl)urea]
0.00437 | > 10 | > 10 | CC(C)CCNC(=O)c1ccc(C(=O)NCc2ccn3ccnc3c2)cc1 [Example 393, N-(imidazo[1,2-a]pyridin-7-ylmethyl)-N′-(3-methylbutyl)benzene-1,4-dicarboxamide]
0.000283 | 0.172 | 8.64 | O=C(NCc1ccn2ccnc2c1)c1ccc(-c2ccccc2)s1 [Example 299, N-(imidazo[1,2-a]pyridin-7-ylmethyl)-5-phenylthiophene-2-carboxamide]
0.00031 | 0.0985 | 0.00347 | COc1ccccc1C(=O)N1CCC(c2ccc(C(=O)NCc3ccn4ccnc4c3)cc2)CC1 [Example 539, N-(imidazo[1,2-a]pyridin-7-ylmethyl)-4-[1-(2-methoxybenzoyl)piperidin-4-yl]benzamide]
0.000783 | 0.403 | 0.0746 | CC(C)CS(=O)(=O)N1CC=C(c2ccc(C(=O)NCc3ccn4ccnc4c3)o2)CC1 [Example 753, N-(imidazo[1,2-a]pyridin-7-ylmethyl)-5-{1-[(2-methylpropyl)sulfonyl]-1,2,3,6-tetrahydropyridin-4-yl}furan-2-carboxamide]
0.00193 | 0.053 | 0.00589 | O=C(NCc1cn2ccnc2cn1)c1ccc(C2CCN(C(=O)CC(F)(F)F)CC2)cc1 [Example 815, N-(imidazo[1,2-a]pyrazin-6-ylmethyl)-4-[1-(3,3,3-trifluoropropanoyl)piperidin-4-yl]benzamide]
0.000169 | 0.0447 | 0.00188 | O=C(NCc1ccn2ccnc2c1)c1ccc(-c2cnn(CCN3CCOCC3)c2)s1 [Example 294, N-(imidazo[1,2-a]pyridin-7-ylmethyl)-5-{1-[2-(morpholin-4-yl)ethyl]-1H-pyrazol-4-yl}thiophene-2-carboxamide]
0.000676 | 0.243 | 0.00638 | CC(C)OCCNC(=O)N(CC1CCCO1)c1ncc(C(=O)NCc2ccc3nccn3c2)s1 (stereo not drawn) [Example 115, N-(imidazo[1,2-a]pyridin-6-ylmethyl)-2-[{[2-(propan-2-yloxy)ethyl]carbamoyl}(tetrahydrofuran-2-ylmethyl)amino]-1,3-thiazole-5-carboxamide]
0.000169 | 0.102 | 0.00559 | O=C(NCc1ccn2ccnc2c1)Nc1ccc(OC2CN(C(=O)C3COCCO3)C2)cc1 (stereo not drawn) [Example 434, 1-(4-{[1-(1,4-dioxan-2-ylcarbonyl)azetidin-3-yl]oxy}phenyl)-3-(imidazo[1,2-a]pyridin-7-ylmethyl)urea]
0.000421 | 0.36 | 0.0811 | O=C(NCc1ccn2ccnc2c1)c1ccc(C2CN(C(=O)c3cscn3)C2)cc1 [Example 637, N-(imidazo[1,2-a]pyridin-7-ylmethyl)-4-[1-(1,3-thiazol-4-ylcarbonyl)azetidin-3-yl]benzamide]
0.000409 | 0.281 | 0.0415 | O=C(Nc1ccc(C(=O)NCC2CCCCO2)cc1)Nc1ccc2nccn2c1 (stereo not drawn) [Example 23]
0.000466 | 0.134 | 0.0247 | CCCC(=O)N1CCC(c2ccc(C(=O)NCc3ccn4ccnc4c3)s2)C1 (stereo not drawn) [Example 782, 5-(1-butanoylpyrrolidin-3-yl)-N-(imidazo[1,2-a]pyridin-7-ylmethyl)thiophene-2-carboxamide]
0.000212 | 1.72 | 0.109 | O=C(NCc1ccn2ccnc2c1)c1ccc(OC2CCN(C(=O)CC3CCOCC3)CC2)cc1 [Example 422, N-(imidazo[1,2-a]pyridin-7-ylmethyl)-4-{[1-(tetrahydro-2H-pyran-4-ylacetyl)piperidin-4-yl]oxy}benzamide]
0.000265 | 0.141 | 0.0598 | O=C(NCc1ccn2ccnc2c1)c1ccc(C2CCN(C(=O)c3cccc(Cl)c3)CC2)cc1 [Example 527, 4-[1-(3-chlorobenzoyl)piperidin-4-yl]-N-(imidazo[1,2-a]pyridin-7-ylmethyl)benzamide]
